Calls of active or inactive are those of the source. The calls are words filed in the database; no cut-off is given here.
Columns and labels:
Mus musculus [1] = experiment: Upregulation of phosphorylated p38 in Kunming mouse implanted with mouse H22 cells assessed as activation of p53 measured after 48 hrs in presence of aspirin by immunofluorescence analysis; assay type: functional; conditions: dose 10-30 µM
HepG2 [2] = experiment: Induction of lysosomal impairment in human HepG2 cells after 48 hrs by Lyso-tracker Red staining based assay; assay type: functional, cell-based; conditions: dose 50-70 µM
[3] = Toxicity in Kunming mouse implanted with mouse H22 cells assessed as change in mouse body weight at 10 mg/kg, iv administered for 7 consecutive days starting from day 8 post inoculation and measured after 16 days (reference value: 21 %); assay type: organism-based; conditions: in vivo, 192 h, time 8 day
HepG2 [4] = experiment: Antimigratory activity against human HepG2 cells assessed as inhibition of cell migration measured after 48 hrs by transwell assay; assay type: functional, cell-based; conditions: dose 50-70 µM
H22 [5] = experiment: (§1) Antitumor activity against mouse H22 cells implanted in Kunming mouse assessed as reduction in tumor weight at 10 mg/kg, iv administered for 7 consecutive days starting from day 8 post inoculation and measured after 16 days (reference value: 2.15 +/- 0.51 g); assay type: functional; conditions: time 8 day
[6] = Toxicity in Kunming mouse implanted with mouse H22 cells assessed as change in mouse body weight at 10 mg/kg, iv administered for 7 consecutive days starting from day 8 post inoculation cotreated with aspirin at 10 mg/kg and measured after 16 days (reference value: 16.7 %); assay type: organism-based; conditions: in vivo, 192 h, time 8 day
H22 [7] = experiment: (§2) Potentiation of DFMO-induced antimetastatic activity against mouse H22 cells implanted in Kunming mouse assessed as inhibition of metastasis at 10 mg/kg, iv administered for 7 consecutive days starting from day 11 post inoculation cotreated with DFMO at 200 mg/kg and measured after 18 days relative to control; assay type: functional; conditions: 192 h, time 8 day
Mus musculus [8] = experiment: Upregulation of phosphorylated p38 in Kunming mouse implanted with mouse H22 cells assessed as activation of p53 measured after 48 hrs by immunofluorescence analysis; assay type: functional; conditions: dose 10-30 µM
H22 [9] = experiment: (§3) Potentiation of aspirin-induced antitumor activity against mouse H22 cells implanted in Kunming mouse assessed as tumor growth inhibition at 10 mg/kg, iv administered for 7 consecutive days starting from day 8 post inoculation cotreated with aspirin at 10 mg/kg and measured after 16 days (reference value: 36 %); assay type: functional; conditions: 192 h, time 8 day, read-out: TGI
HepG2 [10] = experiment: Antiproliferative activity against human HepG2 cells assessed as inhibition of cell proliferation measured after 48 hrs by MTT assay; assay type: functional, cell-based; conditions: HepG2, 48 h
H22 [11] = experiment: as §1, with “Potentiation of DFMO-induced antitumor” for “Antitumor”, “inoculation cotreated with DFMO at 200 mg/kg” for “inoculation”, “1.31” for “2.15”, “0.33” for “0.51”; assay type: functional; conditions: time 8 day
[12] = Toxicity in Kunming mouse implanted with mouse H22 cells assessed mouse mortality at 10 mg/kg, iv administered for 7 consecutive days starting from day 8 post inoculation cotreated with DFMO at 200 mg/kg and measured after 16 days; assay type: organism-based; conditions: in vivo, 192 h, time 8 day
[13] = Cytotoxicity against human QSG7701 cells assessed as inhibition of cell proliferation at 30 uM measured after 48 hrs by MTT assay relative to control; assay type: cell-based
[14] = Toxicity in Kunming mouse implanted with mouse H22 cells assessed as mouse mortality during lug metastasis assay at 10 mg/kg, iv administered for 7 consecutive days starting from day 8 post inoculation and measured after 16 days; assay type: organism-based; conditions: in vivo, 192 h, time 8 day
H22 [15] = experiment: Potentiation of DFMO-induced antitumor activity against mouse H22 cells implanted in Kunming mouse assessed as tumor growth inhibition at 10 mg/kg, iv administered for 7 consecutive days starting from day 8 post inoculation cotreated with DFMO at 200 mg/kg and measured after 16 days (reference value: 38.8 %); assay type: functional; conditions: 192 h, time 8 day, read-out: TGI
[16] = Toxicity in Kunming mouse implanted with mouse H22 cells assessed as change in body weight at 10 mg/kg, iv administered for 7 consecutive days starting from day 11 post inoculation and measured after 18 days (reference value: 5.2 %); assay type: organism-based; conditions: in vivo, 192 h, time 8 day
HepG2 [17] = experiment: Induction of mitochondrial membrane potential loss in human HepG2 cells after 48 hrs by Rh123 staining based assay; assay type: functional, cell-based; conditions: dose 50-70 µM
H22 [18] = experiment: as §3, with “antimetastatic” for “antitumor”, “number of metastatic focus” for “tumor growth inhibition”, “11” for “8”, “18” for “16”, “43.6 +/- 13)” for “36 %)”; assay type: functional; conditions: time 8 day
Mus musculus [19] = experiment: Downregulation of Bcl-2 in Kunming mouse implanted with mouse H22 cells at 10 to 30 uM after 48 hrs in presence of aspirin by immunofluorescence analysis; assay type: functional; conditions: dose 10-30 µM
[20] = Toxicity in iv dosed Kunming mouse assessed as maximum tolerated dose; assay type: organism-based; conditions: in vivo
HepG2 [21] = experiment: Induction of apoptosis in human HepG2 cells after 48 hrs by AO/EB staining based assay; assay type: functional, cell-based; conditions: dose 50-70 µM
Mus musculus [22] = experiment: Upregulation of phosphorylated JNK in Kunming mouse implanted with mouse H22 cells assessed as activation of p53 measured after 48 hrs by immunofluorescence analysis; assay type: functional; conditions: dose 10-30 µM
H22 [23] = experiment: as §2, with “number” for “inhibition”, “metastatic focus” for “metastasis”, “(reference value: 35.1 +/- 12)” for “relative to control”; assay type: functional; conditions: time 8 day
Mus musculus [24] = experiment: Upregulation of phosphorylated JNK in Kunming mouse implanted with mouse H22 cells assessed as activation of p53 measured after 48 hrs in presence of aspirin by immunofluorescence analysis; assay type: functional; conditions: dose 10-30 µM
H22 [25] = experiment: Antitumor activity against mouse H22 cells implanted in Kunming mouse assessed as tumor growth inhibition at 10 mg/kg, iv administered for 7 consecutive days starting from day 8 post inoculation and measured after 16 days relative to control; assay type: functional; conditions: 192 h, time 8 day, read-out: TGI
[26] = Toxicity in Kunming mouse implanted with mouse H22 cells assessed as change in body weight at 10 mg/kg, iv administered for 7 consecutive days starting from day 11 post inoculation cotreated with aspirin at 10 mg/kg and measured after 18 days (reference value: -1.2 %); assay type: organism-based; conditions: in vivo, 192 h, time 8 day
HepG2 [27] = experiment: Induction of apoptosis in human HepG2 cells assessed as upregulation of phosphorylated p38 at 50 to 70 uM measured after 48 hrs by immunofluorescence assay; assay type: functional, cell-based; conditions: dose 50-70 µM
H22 [28] = experiment: as §2, with “aspirin-induced” for “DFMO-induced”, “aspirin” for “DFMO”, “10” for “200”; assay type: functional; conditions: 192 h, time 8 day
HepG2 [29] = experiment: Induction of apoptosis in human HepG2 cells assessed as activation of caspase 8 at 50 to 70 uM measured after 48 hrs by immunofluorescence assay; assay type: functional, cell-based; conditions: dose 50-70 µM
[30] = Antiproliferative activity against mouse H22 cells assessed as inhibition of cell proliferation measured after 48 hrs in presence of 800 uM aspirin by MTT assay; assay type: functional, cell-based
HepG2 [31] = experiment: Induction of apoptosis in human HepG2 cells assessed as activation of caspase 9 at 50 to 70 uM measured after 48 hrs by immunofluorescence assay; assay type: functional, cell-based; conditions: dose 50-70 µM
SMMC-7721 = experiment: Antiproliferative activity against human […] cells assessed as inhibition of cell proliferation at 100 uM measured after 48 hrs by MTT assay relative to control; assay type: functional
[32] = Antiproliferative activity against mouse H22 cells assessed as inhibition of cell proliferation measured after 48 hrs by MTT assay; assay type: functional, cell-based
[33] = Toxicity in Kunming mouse implanted with mouse H22 cells assessed as change in body weight at 10 mg/kg, iv administered for 7 consecutive days starting from day 11 post inoculation cotreated with DFMO at 200 mg/kg and measured after 18 days (reference value: -0.3 %); assay type: organism-based; conditions: in vivo, 192 h, time 8 day
H22 [34] = experiment: Potentiation of aspirin-induced antitumor activity against mouse H22 cells implanted in Kunming mouse assessed as reduction in tumor weight at 10 mg/kg, iv administered for 7 consecutive days starting from day 8 post inoculation cotreated with aspirin at 10 mg/kg and measured after 16 days (reference value: 1.37 +/- 0.60 g); assay type: functional; conditions: time 8 day

Cl.Cl.NCCCNCC(=O)NCc1cccc2c(=O)cc(-c3cccc4ccccc34)oc12
Activity (Mus musculus [1]): Active
Activity (HepG2 [2]): Dose-dependent effect
Activity [3]: 4%
inhibition (HepG2 [4]): Dose-dependent effect
Activity (H22 [5]): 1.3 g
Activity [6]: 19.4%
inhibition in vivo at 10 mg/kg (H22 [7]): 48.9%
Activity (Mus musculus [8]): Dose-dependent effect
inhibition in vivo at 10 mg/kg (H22 [9]): 69.2%
IC50 (HepG2 [10]): 65 µM
Activity (H22 [11]): 1.22 g
Activity [12]: Non-Toxic
inhibition at 48 h, 30 µM [13]: < 5%
Activity [14]: Non-Toxic
inhibition in vivo at 10 mg/kg (H22 [15]): 43%
Activity [16]: 3.7%
Activity (HepG2 [17]): Dose-dependent effect
Activity (H22 [18]): 23
Activity (Mus musculus [19]): Active
MTD [20]: 20 mg/kg
Activity (HepG2 [21]): Dose-dependent effect
Activity (Mus musculus [22]): Dose-dependent effect
Activity (H22 [23]): 29.3
Activity (Mus musculus [24]): Active
inhibition in vivo at 10 mg/kg (H22 [25]): 39.2%
Activity [26]: 4.3%
Activity (HepG2 [27]): Active
inhibition in vivo at 10 mg/kg (H22 [28]): 59.9%
Activity (HepG2 [29]): inactive
IC50 [30]: 21.1 µM
Activity (HepG2 [31]): inactive
inhibition at 100 µM (SMMC-7721): 87.1%
IC50 [32]: 32.1 µM
Activity [33]: 1.2%
Activity (H22 [34]): 0.66 g
